Assay results reported in US9242998B2, “Tetracyclic heterocycle compounds and methods of use thereof for the treatment of hepatitis C” (priority 2013, dated 2016).

Assays:
HCV genotype 1a replicon = experiment: HCV replicon assay, genotype 1a (cell ELISA for replicon-encoded NS3/4A); assay type: cell-based; conditions: Hepatitis C virus, 96 h, read-out: 1a IC50
Experimental: (§1) Measurement of inhibition by compounds was performed using the HCV replicon system. Several different replicons encoding different HCV genotypes or mutations were used. In addition, potency measurements were made using different formats of the replicon assay, including different ways of measurements and different plating formats. See Jan M. Vrolijk et al., A replicons-based bioassay for the measurement of interferons in patients with chronic hepatitis C, 110 J. V[…] 201 (2003); Steven S. Carroll et al., Inhibition of Hepatitis C Virus RNA Replication by 2′-Modified Nucleoside Analogs, 278(14) J. BIOLOGICAL CHEMISTRY 11979 (2003). However, the underlying principles are common to all of these determinations, and are outlined below.
(§2) Stable neomycin phosphotransferase encoding replicons-harboring cell lines were used, so all cell lines were maintained under G418 selection prior to the assay. Potency was determined using a cell ELISA assay with an antibody to the replicons encoded NS3/4a protease. See Caterina Trozzi et al., In Vitro Selection and Characterization of Hepatitis C Virus Serine Protease Variants Resistant to an Active-Site Peptide Inhibitor, 77(6) J. Virol. 3669 (2003). To initiate an assay, replicon cells were plated in the presence of a dilution series of test compound in the absence of G418. Typically, the assays were performed in a 96-well plate formate for manual operation, or a 384-well plate format for automated assay. Replicon cells and compound were incubated for 96 hours. At the end of the assay, cells were washed free of media and compound, and the cells were then lysed. RNA was quantified indirectly through detection of replicon-encoded NS3/4A protein levels, through an ELISA-based assay with an antibody specific for NS3/4A. IC50 determinations were calculated as a percentage of a DMSO control by fitting the data to a four-parameter fit function and the data obtained is provided in the table below.
(§3) Data for selected compounds of the present invention was obtained for genotypes 1a and 1b using this method and is provided in the table below: […]

HCV genotype 1b replicon = experiment: HCV replicon assay, genotype 1b (cell ELISA for replicon-encoded NS3/4A); assay type: cell-based; conditions: Hepatitis C virus, 96 h, read-out: 1b IC50
Experimental: as §1, §2, §3

| Structure (SMILES) | IC50 (HCV genotype 1a replicon) [µM] | IC50 (HCV genotype 1b replicon) [µM] |
| --- | --- | --- |
| CNC(=O)c1c(-c2ccc(C#N)cc2)oc2cc(N(C)S(C)(=O)=O)c(-c3ccc4c(n3)-c3cc5c(F)cccc5n3CO4)cc12 [Compound 29, 2-(4-cyanophenyl)-5-(11-fluoro-6H-pyrido[2′,3′:5,6][1,3]oxazino[3,4-a]indol-2-yl)-N-methyl-6-(N-methylmethylsulfonamido)benzofuran-3-carboxamide] | 0.013 | 0.025 |
| CNC(=O)c1c(-c2ccc(F)cn2)oc2cc(N(C)S(C)(=O)=O)c(-c3ccc4c(n3)-c3cc5c(F)cccc5n3CO4)cc12 [Compound 30] | 0.011 | 0.025 |
| CNC(=O)c1c(-c2ccc(C(F)(F)F)cn2)oc2cc(N(C)S(C)(=O)=O)c(-c3ccc4c(n3)-c3cc5c(F)cccc5n3CO4)cc12 [Compound 31] | 0.0059 | 0.0039 |
| CNC(=O)c1c(C2=CCSCC2)oc2cc(N(C)S(C)(=O)=O)c(-c3ccc4c(n3)-c3cc5c(F)cccc5n3CO4)cc12 [Compound 32, 2-(3,6-dihydro-2H-thiopyran-4-yl)-5-(11-fluoro-6H-pyrido[2′,3′:5,6][1,3]oxazino[3,4-a]indol-2-yl)-N-methyl-6-(N-methylmethylsulfonamido)benzofuran-3-carboxamide] | 0.036 | 0.014 |
| CNC(=O)c1c(-c2ccc(OC(F)(F)F)cc2)oc2cc(N(C)S(C)(=O)=O)c(-c3ccc4c(n3)-c3cc5c(F)cccc5n3CO4)cc12 [Compound 33] | 0.05 | 0.0025 |
| CNC(=O)c1c(-c2cnn(C(C)C)c2)oc2cc(N(C)S(C)(=O)=O)c(-c3ccc4c(n3)-c3cc5c(F)cccc5n3CO4)cc12 [Compound 34] | 0.015 | 0.014 |
| CNC(=O)c1c(-c2ccc(C(F)(F)F)nc2)oc2cc(N(C)S(C)(=O)=O)c(-c3ccc4c(n3)-c3cc5c(F)cccc5n3CO4)cc12 [Compound 35] | 0.0028 | 0.0031 |
| CNC(=O)c1c(-n2ccnc2)oc2cc(N(C)S(C)(=O)=O)c(-c3ccc4c(n3)-c3cc5c(F)cccc5n3CO4)cc12 [Compound 36, 5-(11-fluoro-6H-pyrido[2′,3′:5,6][1,3]oxazino[3,4-a]indol-2-yl)-2-(1H-imidazol-1-yl)-N-methyl-6-(N-methylmethylsulfonamido)benzofuran-3-carboxamide] | 0.014 | 0.02 |
| CNC(=O)c1c(-n2ccccc2=O)oc2cc(N(C)S(C)(=O)=O)c(-c3ccc4c(n3)-c3cc5c(F)cccc5n3CO4)cc12 [Compound 37] | 0.0022 | 0.003 |
| CNC(=O)c1c(-n2ccc(C)cc2=O)oc2cc(N(C)S(C)(=O)=O)c(-c3ccc4c(n3)-c3cc5c(F)cccc5n3CO4)cc12 [Compound 38] | 0.0035 | 0.0027 |
| CNC(=O)c1c(-n2cc(C)cn2)oc2cc(N(C)S(C)(=O)=O)c(-c3ccc4c(n3)-c3cc5c(F)cccc5n3CO4)cc12 [Compound 39] | 0.048 | 0.067 |
| CNC(=O)c1c(-n2cccn2)oc2cc(N(C)S(C)(=O)=O)c(-c3ccc4c(n3)-c3cc5c(F)cccc5n3CO4)cc12 [Compound 40] | 0.016 | 0.022 |
| CNC(=O)c1c(-n2cnc(C)n2)oc2cc(N(C)S(C)(=O)=O)c(-c3ccc4c(n3)-c3cc5c(F)cccc5n3CO4)cc12 [Compound 41] | 0.082 | 0.022 |
| CNC(=O)c1c(N2CCOCC2)oc2cc(N(C)S(C)(=O)=O)c(-c3ccc4c(n3)-c3cc5c(F)cccc5n3CO4)cc12 [Compound 42, 5-(11-fluoro-6H-pyrido[2′,3′:5,6][1,3]oxazino[3,4-a]indol-2-yl)-N-methyl-6-(N-methylmethylsulfonamido)-2-morpholinobenzofuran-3-carboxamide] | 0.085 | 0.035 |
| CNC(=O)c1c(N2CCOC2=O)oc2cc(N(C)S(C)(=O)=O)c(-c3ccc4c(n3)-c3cc5c(F)cccc5n3CO4)cc12 [Compound 43] | 0.021 | 0.05 |
| CNC(=O)c1c(C2=CCCC2)oc2cc(N(C)S(C)(=O)=O)c(-c3ccc4c(n3)-c3cc5ccccc5n3CO4)cc12 [Compound 44, 2-(cyclopent-1-en-1-yl)-N-methyl-6-(N-methylmethylsulfonamido)-5-(6H-pyrido[2′,3′:5,6][1,3]oxazino[3,4-a]indol-2-yl)benzofuran-3-carboxamide] | 0.0062 | 0.0083 |
| CNC(=O)c1c(C2=CCCC2)oc2cc(N(C)S(C)(=O)=O)c(-c3ccc4c(n3)-c3cc5c(F)cccc5n3CO4)cc12 [Compound 45] | 0.0061 | 0.0064 |
| CNC(=O)c1c(C2=CCCC2)oc2cc(N(C)S(C)(=O)=O)c(-c3ncc4c(n3)-c3cc5ccccc5n3CO4)cc12 [Compound 46] | 0.015 | 0.013 |
| CNC(=O)c1c(C2=CCCC2)oc2cc(N(C)S(C)(=O)=O)c(-c3ncc4c(n3)-c3cc5c(F)cccc5n3CO4)cc12 [Compound 47] | 0.0059 | 0.0088 |
| CNC(=O)c1c(C23CCCC2C3)oc2cc(N(C)S(C)(=O)=O)c(-c3ccc4c(n3)-c3cc5c(F)cccc5n3CO4)cc12 (stereo not drawn) [Compound 48, 2-(bicyclo[3.1.0]hexan-1-yl)-5-(11-fluoro-6H-pyrido[2′,3′:5,6][1,3]oxazino[3,4-a]indol-2-yl)-N-methyl-6-(N-methylmethylsulfonamido)benzofuran-3-carboxamide] | 0.028 | 0.034 |
| CNC(=O)c1c(C2CC2(C)C)oc2cc(N(C)S(C)(=O)=O)c(-c3ccc4c(n3)-c3cc5c(F)cccc5n3CO4)cc12 (stereo not drawn) [Compound 49] | 0.027 | 0.022 |
| CNC(=O)c1c(C2CC2(F)F)oc2cc(N(C)S(C)(=O)=O)c(-c3ccc4c(n3)-c3cc5c(F)cccc5n3CO4)cc12 (stereo not drawn) [Compound 50, 2-(2,2-difluorocyclopropyl)-5-(11-fluoro-6H-pyrido[2′,3′:5,6][1,3]oxazino[3,4-a]indol-2-yl)-N-methyl-6-(N-methylmethylsulfonamido)benzofuran-3-carboxamide] | 0.022 | 0.038 |
| CNC(=O)c1c(C2CC2)oc2cc(N(C)S(C)(=O)=O)c(-c3cc4c(cn3)OC(CO)n3c-4cc4c(F)cccc43)cc12 (stereo not drawn) [Compound 52] | 0.052 | 0.023 |
| CNC(=O)c1c(C2CC2)oc2cc(N(C)S(C)(=O)=O)c(-c3ncc4c(n3)-c3cc5c(F)cccc5n3CO4)cc12 [Compound 53] | 0.033 | 0.03 |
| CNC(=O)c1oc2cc(N(C)S(C)(=O)=O)c(-c3ccc4c(n3)-c3cc5c(F)cccc5n3CO4)cc2c1C(=O)NC [Compound 54, 5-(11-fluoro-6H-pyrido[2′,3′:5,6][1,3]oxazino[3,4-a]indol-2-yl)-N2,N3-dimethyl-6-(N-methylmethylsulfonamido)benzofuran-2,3-dicarboxamide] | 0.0043 | 0.0071 |
| CNC(=O)c1c(C(=O)N(C)C)oc2cc(N(C)S(C)(=O)=O)c(-c3ccc4c(n3)-c3cc5c(F)cccc5n3CO4)cc12 [Compound 55] | 0.004 | 0.0064 |
| CNC(=O)c1c(C(=O)N2CCC2)oc2cc(N(C)S(C)(=O)=O)c(-c3ccc4c(n3)-c3cc5c(F)cccc5n3CO4)cc12 [Compound 56] | 0.005 | 0.011 |
| CNC(=O)c1c(C(=O)N2CCOCC2)oc2cc(N(C)S(C)(=O)=O)c(-c3ccc4c(n3)-c3cc5c(F)cccc5n3CO4)cc12 [Compound 57] | 0.232 | 0.135 |
| CNC(=O)c1c(-c2nnc(C)o2)oc2cc(N(C)S(C)(=O)=O)c(-c3ccc4c(n3)-c3cc5c(F)cccc5n3CO4)cc12 [Compound 58, 5-(11-fluoro-6H-pyrido[2′,3′:5,6][1,3]oxazino[3,4-a]indol-2-yl)-N-methyl-2-(5-methyl-1,3,4-oxadiazol-2-yl)-6-(N-methylmethylsulfonamido)benzofuran-3-carboxamide] | 0.0081 | 0.0079 |
| CNC(=O)c1c(/C(C)=N/OC)oc2cc(N(C)S(C)(=O)=O)c(-c3ccc4c(n3)-c3cc5c(F)cccc5n3CO4)cc12 [Compound 59, 5-(11-fluoro-6H-pyrido[2′,3′:5,6][1,3]oxazino[3,4-a]indol-2-yl)-2-(1-(methoxyimino)ethyl)-N-methyl-6-(N-methylmethylsulfonamido)benzofuran-3-carboxamide] | 0.034 | 0.013 |
